Key:
PDE4D2 = biological target: T1, PDE4D2 (Homo sapiens, UniProt Q08499); test: In vitro PDE4D2 enzyme inhibitory activity (AMP-Glo), reported as PDE4D2/PDE4B2 selectivity; type: biochemical; settings: Ratio of IC50 value of PDE4D2 enzyme inhibition/IC50 value of PDE4B2 enzyme inhibition
T1 construct: purchased BPS bioscience
Protocol: Assay 1: In vitro evaluation of inhibitory activities of the compounds against PDE4B2 and PDE4D2 enzymes 1. Assay materials and instruments:
2. Assay procedure: • 2.1 Compound preparation and treatment • 2.1.1 Preparing stock solutions of compounds in DMSO: Compound powders were dissolved in 100% DMSO to produce 10 mM stock solutions, and oscillated in a shaker until the compounds were completely dissolved. • 2.1.2 Storing stock solutions of compounds in DMSO: Stock solutions of compounds in DMSO were stored in a desiccator at room temperature. • 2.1.3 Preparing working stock solutions: a) A solution of Roflumilast (reference compound) in DMSO was diluted to 60 µM, and then serially diluted 4-fold into 10 concentration gradients. B) The solutions of the test compounds in DMSO were diluted to 200 µM, and then serially diluted 3-fold. C) A 200X positive control (60 µM Roflumilast) and a 200X vehicle control (100% DMSO) were prepared. D) The assay plate was centrifuged at 1000 rpm for 1 minute. • 2.2 Compound testing • (1) 20 nL of compound dilution solutions were transferred with Echo 550 into each well of the assay plate. • (2) The assay plate was sealed and centrifuged at 1000 rpm for 1 minute. • (3) 2X PDE4B2/PDE4D2 was prepared in an ice-cold PDE assay buffer. • (4) 2 µL of 2X PDE4B2/PDE4D2 was added to each well of the assay plate prepared in step 2. • (5) The assay plate was sealed and allowed to equilibrate at room temperature for 10 minutes. • (6) 2X Cyclic-3',5'-AMP was prepared in a PDE assay buffer. • 7) 2µL of 2X Cyclic-3',S'-AMP (prepared in step 6) was added to each well of the assay plate (prepared in step 5) to initiate the reaction. The plate was incubated at room temperature for 60 minutes. • 8) 4µL AMP-Glo Reagent I was added, and the plate was incubated at room temperature for 60 minutes. • 9) 8µL AMP detection reagent was added. The plate was incubated at room temperature for 60 minutes. • 10) The RLU signal was read on an Envision 2105 plate reader.

[1] = tested on: LPS-induced TNF-α secretion from human PBMC; test: Inhibition of LPS-induced TNF-α secretion from human PBMC; type: cell-based; settings: hPBMC, LPS 10 ng/mL, 24 hours
Protocol: Assay 3: Test of the inhibition of compounds on LPS-induced TNF-α secretion from human PBMC
Frozen hPBMC cell stock solution was rapidly thawed in a 37°C water bath. The cells were transferred to complete medium (RPMI 1640+10% FBS+1% P/S). The suspension was centrifuged at 1000 rpm for 5 minutes. The supernatant was discarded, and the cells were resuspended in 1 mL complete medium (RPMI 1640 + 10% FBS + 1% P/S). After gentle pipetting to mix, the cells were counted using trypan blue staining. Cells were seeded into a 96-well cell culture plate at 5×10^4 cells/well, with 100 µL/well of complete medium. Test compounds were prepared at 4×the final concentration and added to the cells at 50 µL/well, followed by a 30-minute pre-incubation. Control wells without compound were simultaneously set up. LPS was prepared as a 4×solution to achieve a final stimulation concentration of 10 ng/mL and added to the cells at 50µL/well. Control wells without LPS were simultaneously set up. The incubation of cells was continued and 10% of supernatant was collected for detection after 24 hours. The collected supernatant was detected according to the Human TNF-α kit of R&D Company (VAL105G). The inhibitory activities of the compounds of the present invention on LPS-induced TNF-α secretion from human PBMC were determined according to the above method. […]

T1 sequence (Q08499 303-809 limits assumed): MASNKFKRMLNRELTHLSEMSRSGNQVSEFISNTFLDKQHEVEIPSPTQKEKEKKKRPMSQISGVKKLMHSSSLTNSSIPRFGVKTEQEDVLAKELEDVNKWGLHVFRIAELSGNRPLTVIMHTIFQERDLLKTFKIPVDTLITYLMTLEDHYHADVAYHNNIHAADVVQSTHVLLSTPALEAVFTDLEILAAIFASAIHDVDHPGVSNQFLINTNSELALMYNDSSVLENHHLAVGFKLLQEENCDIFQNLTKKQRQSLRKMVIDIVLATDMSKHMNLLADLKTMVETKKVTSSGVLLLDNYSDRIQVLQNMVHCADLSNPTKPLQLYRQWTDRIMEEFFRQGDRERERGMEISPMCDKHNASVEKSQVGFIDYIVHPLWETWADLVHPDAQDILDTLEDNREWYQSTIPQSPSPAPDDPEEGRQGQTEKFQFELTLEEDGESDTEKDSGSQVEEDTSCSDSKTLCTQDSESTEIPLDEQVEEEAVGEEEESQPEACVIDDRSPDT

| SMILES | PDE4D2/PDE4B2 selectivity (PDE4D2) | IC50 [1] |
| --- | --- | --- |
| COc1cc(C2(O)CN(c3nc4c(c(NC5(CO)CCC5)n3)[S+]([O-])CC4)C2)ccc1Cl (racemic) [Compound 3, (R/S)-2-(3-(4-chloro-3-methoxyphenyl)-3-hydroxyazetidin-1-yl)-4-((1-(hydroxymethyl)cyclobutyl)amino)-6,7-dihydrothieno[3,2-d]pyrimidine 5-oxide] | B (2<B≤5) |  |
| [O-][S+]1CCc2nc(N3CC=C(c4ccc(OC(F)F)cc4)C3)nc(NC3(CO)CCC3)c21 (racemic) [Compound 14, (R/S)-2-(3-(4-(difluoromethoxy)phenyl)-2,5-dihydro-1H-pyrrol-1-yl)-4-((1-(hydroxymethyl)cyclobutyl)amino)-6,7-dihydrothieno[3,2-d]pyrimidine 5-oxide] | B (2<B≤5) |  |
| COC1(c2ccc(Cl)c(F)c2)CN(c2nc3c(c(NC4(CO)CCC4)n2)[S+]([O-])CC3)C1 (racemic) [Compound 82, (R/S)-2-(3-(4-chloro-3-fluorophenyl)-3-methoxyazetidin-1-yl)-4-((1-(hydroxymethyl)cyclobutyl)amino)-6,7-dihydrothieno[3,2-d]pyrimidine 5-oxide] | A (5<A≤10) |  |
| COC1(c2ccc(Cl)cc2)CN(c2nc3c(c(NC4(CO)CCC4)n2)[S+]([O-])CC3)C1 (racemic) [Compound 83, (R/S)-2-(3-(4-chlorophenyl)-3-methoxyazetidin-1-yl)-4-((1-(hydroxymethyl)cyclobutyl)amino)-6,7-dihydrothieno[3,2-d]pyrimidine 5-oxide] | A (5<A≤10) | 1.35 nM |
| COC1(c2ccc(Cl)c(F)c2)CN(c2nc3c(c(NC4CCOCC4)n2)[S+]([O-])CC3)C1 (racemic) [Compound 86, (R/S)-2-(3-(4-chloro-3-fluorophenyl)-3-methoxyazetidin-1-yl)-4-((tetrahydro-2H-pyran-4-yl)amino)-6,7-dihydrothieno[3,2-d]pyrimidine 5-oxide] | B (2<B≤5) |  |
| [O-][S+]1CCc2nc(N3Cc4ccc(OC(F)F)cc4C3)nc(NC3(CO)CCC3)c21 (racemic) [Compound 87, (R/S)-2-(5-(difluoromethoxy)isoindolin-2-yl)-4-((1-(hydroxymethyl)cyclobutyl)amino)-6,7-dihydrothieno[3,2-d]pyrimidine 5-oxide] | B (2<B≤5) |  |
| COC1(c2ccc(Cl)cc2)CN(c2nc3c(c(NC4CCOCC4)n2)[S+]([O-])CC3)C1 (racemic) [Compound 88, (R/S)-2-(3-(4-chlorophenyl)-3-methoxyazetidin-1-yl)-4-((tetrahydro-2H-pyran-4-yl)amino)-6,7-dihydrothieno[3,2-d]pyrimidine 5-oxide] | B (2<B≤5) |  |
| [2H]C([2H])([2H])OC1(c2ccc(Cl)cc2)CN(c2nc3c(c(NC4(CO)CCC4)n2)[S+]([O-])CC3)C1 (racemic) [Compound 92, (R/S)-2-(3-(4-chlorophenyl)-3-(methoxy-d3)azetidin-1-yl)-4-((1-(hydroxymethyl)cyclobutyl)amino)-6,7-dihydrothieno[3,2-d]pyrimidine 5-oxide] | A (5<A≤10) |  |
| [2H]C([2H])([2H])OC1(c2ccc(Cl)cc2)CN(c2nc3c(c(NC4CCOCC4)n2)[S+]([O-])CC3)C1 (racemic) [Compound 94, (R/S)-2-(3-(4-chlorophenyl)-3-(methoxy-d3)azetidin-1-yl)-4-((tetrahydro-2H-pyran-4-yl)amino)-6,7-dihydrothieno[3,2-d]pyrimidine 5-oxide] | B (2<B≤5) |  |
| COC1(c2ccc(OC(F)F)cc2)CN(c2nc3c(c(NC4(CO)CCC4)n2)[S+]([O-])CC3)C1 (racemic) [Compound 105, (R/S)-2-(3-(4-(difluoromethoxy)phenyl)-3-methoxyazetidin-1-yl)-4-((1-(hydroxymethyl)cyclobutyl)amino)-6,7-dihydrothieno[3,2-d]pyrimidine 5-oxide] | B (2<B≤5) |  |
| COC1(c2ccc(OCC3CC3)cc2)CN(c2nc3c(c(NC4(CO)CCC4)n2)[S+]([O-])CC3)C1 (racemic) [Compound 106, (R/S)-2-(3-(4-(cyclopropylmethoxy)phenyl)-3-methoxyazetidin-1-yl)-4-((1-(hydroxymethyl)cyclobutyl)amino)-6,7-dihydrothieno[3,2-d]pyrimidine 5-oxide] | B (2<B≤5) |  |
| COC1(c2ccc(N3CCCC3)cc2)CN(c2nc3c(c(NC4(CO)CCC4)n2)[S+]([O-])CC3)C1 (racemic) [Compound 107, (R/S)-4-((1-(hydroxymethyl)cyclobutyl)amino)-2-(3-methoxy-3-(4-(pyrrolidin-1-yl)phenyl)azetidin-1-yl)-6,7-dihydrothieno[3,2-d]pyrimidine 5-oxide] | B (2<B≤5) |  |
| COc1ccc(C2(OC)CN(c3nc4c(c(NC5CCOCC5)n3)[S+]([O-])CC4)C2)cc1 (racemic) [Compound 108, (R/S)-2-(3-methoxy-3-(4-methoxyphenyl)azetidin-1-yl)-4-((tetrahydro-2H-pyran-4-yl)amino)-6,7-dihydrothieno[3,2-d]pyrimidine 5-oxide] | B (2<B≤5) |  |
| [O-][S+]1CCc2nc(N3CCC(c4ncc(Cl)cn4)CC3)nc(NC3(CO)CCC3)c21 (stereo not shown) [Control 1, reference compound] | C (C≤2) | 146 nM |
